According to the kinase profiling compilation of Christmann-Franck et al. (2016):

Key:
Experiment in all cases: KINOMEscan competition binding
Conditions in all cases: compound 10.0 µM
MYLK (human) = MYLK (human) (UniProt Q15746)
TAOK2 (human) = TAOK2 (human) (UniProt Q9UL54)
NUAK1 (human) = NUAK1 (human) (UniProt O60285)
CAMK2G (human) = CAMK2G (human) (UniProt Q13555)
TNNI3K (human) = TNNI3K (human) (UniProt Q59H18)
TIE1 (human) = TIE1 (human) (UniProt P35590)
PIK3CD (human) = PIK3CD (human) (UniProt O00329)
PAK7 (human) = PAK7 (human) (UniProt Q9P286)
MYLK4 (human) = MYLK4 (human) (UniProt Q86YV6)
RIPK1 (human) = RIPK1 (human) (UniProt Q13546)
SLK (human) = SLK (human) (UniProt Q9H2G2)
TNIK (human) = TNIK (human) (UniProt Q9UKE5)
STK36 (human) = STK36 (human) (UniProt Q9NRP7)
HCK (human) = HCK (human) (UniProt P08631)
MKNK2 (human) = MKNK2 (human) (UniProt Q9HBH9)
[1] = test system: MET (human), P08581 [Y1235D]
STK3 (human) = STK3 (human) (UniProt Q13188)
STK35 (human) = STK35 (human) (UniProt Q8TDR2)
ERBB4 (human) = ERBB4 (human) (UniProt Q15303)
AURKC (human) = AURKC (human) (UniProt Q9UQB9)
MLTK (human) = MLTK (human) (UniProt Q9NYL2)
MAP3K9 (human) = MAP3K9 (human) (UniProt P80192)
HIPK1 (human) = HIPK1 (human) (UniProt Q86Z02)
[2] = biological target: JAK1 JH2 pseudokinase (human) (UniProt P23458)
MAPKAPK5 (human) = MAPKAPK5 (human) (UniProt Q8IW41)
RAF1 (human) = RAF1 (human) (UniProt P04049)
FGFR1 (human) = FGFR1 (human) (UniProt P11362)
MTOR (human) = MTOR (human) (UniProt P42345)
PRKX (human) = PRKX (human) (UniProt P51817)
ROS1 (human) = ROS1 (human) (UniProt P08922)
TRPM6 (human) = TRPM6 (human) (UniProt Q9BX84)
SGK3 (human) = SGK3 (human) (UniProt Q96BR1)
FRK (human) = FRK (human) (UniProt P42685)
MAP3K11 (human) = MAP3K11 (human) (UniProt Q16584)
MARK3 (human) = MARK3 (human) (UniProt P27448)
PHKG2 (human) = PHKG2 (human) (UniProt P15735)
TAOK1 (human) = TAOK1 (human) (UniProt Q7L7X3)
CDK17 (human) = CDK17 (human) (UniProt Q00537)
EPHB1 (human) = EPHB1 (human) (UniProt P54762)
MAPK11 (human) = MAPK11 (human) (UniProt Q15759)
Sequence of MAPK11 (human) (Q15759 whole entry, looked up): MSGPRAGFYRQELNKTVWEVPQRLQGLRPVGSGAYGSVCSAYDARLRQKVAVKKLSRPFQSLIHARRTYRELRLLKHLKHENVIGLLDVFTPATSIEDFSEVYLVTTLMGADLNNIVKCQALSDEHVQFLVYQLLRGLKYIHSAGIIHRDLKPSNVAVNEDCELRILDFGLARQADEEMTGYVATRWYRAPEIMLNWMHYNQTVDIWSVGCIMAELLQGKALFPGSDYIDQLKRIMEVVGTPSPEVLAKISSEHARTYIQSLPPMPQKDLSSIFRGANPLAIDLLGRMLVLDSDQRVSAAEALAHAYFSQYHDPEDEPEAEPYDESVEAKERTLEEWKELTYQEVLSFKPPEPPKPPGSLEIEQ

Sequence of STK35 (human) (Q8TDR2 whole entry, looked up): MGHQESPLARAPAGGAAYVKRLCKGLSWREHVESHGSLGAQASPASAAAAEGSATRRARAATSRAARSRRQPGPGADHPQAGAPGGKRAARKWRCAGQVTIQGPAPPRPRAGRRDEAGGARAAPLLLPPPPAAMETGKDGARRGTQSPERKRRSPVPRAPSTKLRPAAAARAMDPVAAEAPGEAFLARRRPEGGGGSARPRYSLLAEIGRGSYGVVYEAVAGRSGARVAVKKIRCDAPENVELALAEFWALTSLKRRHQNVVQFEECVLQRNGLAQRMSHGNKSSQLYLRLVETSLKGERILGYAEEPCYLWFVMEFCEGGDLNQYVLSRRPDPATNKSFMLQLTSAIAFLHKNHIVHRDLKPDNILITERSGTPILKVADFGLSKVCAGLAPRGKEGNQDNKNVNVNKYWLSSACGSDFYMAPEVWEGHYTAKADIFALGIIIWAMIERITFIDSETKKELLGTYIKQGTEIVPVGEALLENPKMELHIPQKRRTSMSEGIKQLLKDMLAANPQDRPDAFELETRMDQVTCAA
Sequence of TRPM6 (human) (Q9BX84 whole entry, looked up): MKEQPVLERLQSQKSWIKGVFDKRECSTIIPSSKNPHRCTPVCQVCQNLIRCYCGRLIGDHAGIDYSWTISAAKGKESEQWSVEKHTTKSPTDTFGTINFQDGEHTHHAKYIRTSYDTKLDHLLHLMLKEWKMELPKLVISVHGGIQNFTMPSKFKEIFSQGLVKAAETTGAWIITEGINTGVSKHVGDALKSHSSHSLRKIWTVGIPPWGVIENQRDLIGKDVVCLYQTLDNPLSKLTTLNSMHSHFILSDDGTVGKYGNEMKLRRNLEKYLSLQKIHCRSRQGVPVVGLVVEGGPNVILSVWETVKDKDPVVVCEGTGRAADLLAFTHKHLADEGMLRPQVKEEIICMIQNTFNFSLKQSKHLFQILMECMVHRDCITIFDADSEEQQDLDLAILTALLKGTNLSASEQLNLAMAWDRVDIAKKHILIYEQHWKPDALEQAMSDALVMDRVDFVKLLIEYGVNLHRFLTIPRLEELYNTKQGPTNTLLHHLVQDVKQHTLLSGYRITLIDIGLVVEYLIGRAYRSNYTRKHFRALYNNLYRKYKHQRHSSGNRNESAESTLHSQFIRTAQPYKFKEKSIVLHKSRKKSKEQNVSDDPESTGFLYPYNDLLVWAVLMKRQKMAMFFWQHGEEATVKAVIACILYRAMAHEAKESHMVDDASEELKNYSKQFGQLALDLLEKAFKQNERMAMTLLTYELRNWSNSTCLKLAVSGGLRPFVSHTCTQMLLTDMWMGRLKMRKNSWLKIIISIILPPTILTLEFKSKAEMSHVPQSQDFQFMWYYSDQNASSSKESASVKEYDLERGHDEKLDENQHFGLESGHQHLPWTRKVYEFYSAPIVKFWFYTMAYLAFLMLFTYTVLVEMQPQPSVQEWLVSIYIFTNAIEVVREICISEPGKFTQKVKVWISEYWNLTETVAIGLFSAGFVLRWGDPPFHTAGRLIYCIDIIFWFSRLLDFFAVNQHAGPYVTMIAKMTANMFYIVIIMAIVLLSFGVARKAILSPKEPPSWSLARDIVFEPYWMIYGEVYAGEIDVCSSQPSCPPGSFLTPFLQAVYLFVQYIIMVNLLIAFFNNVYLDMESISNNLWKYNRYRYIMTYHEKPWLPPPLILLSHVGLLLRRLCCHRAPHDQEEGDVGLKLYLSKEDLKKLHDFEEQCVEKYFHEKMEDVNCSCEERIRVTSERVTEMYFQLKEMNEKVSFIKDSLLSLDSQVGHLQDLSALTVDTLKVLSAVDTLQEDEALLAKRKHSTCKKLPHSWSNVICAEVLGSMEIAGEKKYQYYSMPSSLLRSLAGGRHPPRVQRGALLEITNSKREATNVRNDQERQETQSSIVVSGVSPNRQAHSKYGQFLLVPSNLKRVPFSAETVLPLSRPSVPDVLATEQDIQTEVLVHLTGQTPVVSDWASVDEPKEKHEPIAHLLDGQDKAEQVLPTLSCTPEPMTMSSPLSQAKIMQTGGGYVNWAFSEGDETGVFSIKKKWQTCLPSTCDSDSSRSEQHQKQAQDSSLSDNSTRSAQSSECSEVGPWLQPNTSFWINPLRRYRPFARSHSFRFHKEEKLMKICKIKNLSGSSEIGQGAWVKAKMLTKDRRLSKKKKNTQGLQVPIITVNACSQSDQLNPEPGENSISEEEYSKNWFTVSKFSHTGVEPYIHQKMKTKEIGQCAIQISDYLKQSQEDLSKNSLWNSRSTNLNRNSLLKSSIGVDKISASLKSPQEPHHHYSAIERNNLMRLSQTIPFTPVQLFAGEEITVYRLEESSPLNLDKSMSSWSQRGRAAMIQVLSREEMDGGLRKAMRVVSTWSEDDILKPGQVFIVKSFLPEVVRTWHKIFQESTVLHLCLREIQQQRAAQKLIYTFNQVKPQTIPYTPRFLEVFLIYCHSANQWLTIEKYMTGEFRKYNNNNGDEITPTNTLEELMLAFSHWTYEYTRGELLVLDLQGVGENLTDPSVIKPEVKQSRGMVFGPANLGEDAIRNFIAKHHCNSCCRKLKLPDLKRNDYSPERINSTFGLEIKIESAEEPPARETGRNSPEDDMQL
Sequence of HCK (human) (P08631 whole entry, looked up): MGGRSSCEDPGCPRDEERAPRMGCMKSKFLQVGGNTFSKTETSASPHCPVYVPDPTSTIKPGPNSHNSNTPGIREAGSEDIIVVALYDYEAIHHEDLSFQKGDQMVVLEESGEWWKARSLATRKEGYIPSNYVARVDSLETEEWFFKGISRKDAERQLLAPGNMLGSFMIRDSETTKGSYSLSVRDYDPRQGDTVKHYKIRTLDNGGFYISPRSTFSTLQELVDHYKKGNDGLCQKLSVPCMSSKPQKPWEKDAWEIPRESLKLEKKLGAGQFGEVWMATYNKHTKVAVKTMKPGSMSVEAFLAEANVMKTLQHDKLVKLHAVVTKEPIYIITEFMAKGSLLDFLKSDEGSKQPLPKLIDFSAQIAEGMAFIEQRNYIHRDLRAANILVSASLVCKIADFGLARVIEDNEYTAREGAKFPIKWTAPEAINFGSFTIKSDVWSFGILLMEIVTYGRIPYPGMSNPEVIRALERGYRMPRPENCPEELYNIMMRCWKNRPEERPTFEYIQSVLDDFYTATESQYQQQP
Sequence of MARK3 (human) (P27448 whole entry, looked up): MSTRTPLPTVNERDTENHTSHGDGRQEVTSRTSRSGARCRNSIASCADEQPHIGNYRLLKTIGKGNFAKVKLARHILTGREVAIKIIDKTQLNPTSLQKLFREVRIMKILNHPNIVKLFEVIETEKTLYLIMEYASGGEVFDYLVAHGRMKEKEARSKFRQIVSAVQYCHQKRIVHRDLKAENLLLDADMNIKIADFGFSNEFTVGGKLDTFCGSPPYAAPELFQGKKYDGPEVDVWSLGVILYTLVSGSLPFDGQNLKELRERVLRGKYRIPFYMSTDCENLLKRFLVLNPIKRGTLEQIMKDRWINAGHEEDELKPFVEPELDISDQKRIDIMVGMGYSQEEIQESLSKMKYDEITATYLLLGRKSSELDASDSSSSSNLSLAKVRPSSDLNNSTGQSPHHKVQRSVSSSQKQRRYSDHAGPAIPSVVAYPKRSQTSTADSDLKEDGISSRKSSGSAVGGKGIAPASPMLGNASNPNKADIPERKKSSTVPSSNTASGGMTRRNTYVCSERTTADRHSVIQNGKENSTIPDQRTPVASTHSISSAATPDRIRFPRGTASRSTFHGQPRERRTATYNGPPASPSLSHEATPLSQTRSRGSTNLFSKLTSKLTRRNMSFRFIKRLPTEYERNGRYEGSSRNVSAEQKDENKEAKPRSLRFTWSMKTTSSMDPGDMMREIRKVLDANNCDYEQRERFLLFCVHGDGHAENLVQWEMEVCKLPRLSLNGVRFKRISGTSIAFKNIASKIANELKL
Sequence of PAK7 (human) (Q9P286 whole entry, looked up): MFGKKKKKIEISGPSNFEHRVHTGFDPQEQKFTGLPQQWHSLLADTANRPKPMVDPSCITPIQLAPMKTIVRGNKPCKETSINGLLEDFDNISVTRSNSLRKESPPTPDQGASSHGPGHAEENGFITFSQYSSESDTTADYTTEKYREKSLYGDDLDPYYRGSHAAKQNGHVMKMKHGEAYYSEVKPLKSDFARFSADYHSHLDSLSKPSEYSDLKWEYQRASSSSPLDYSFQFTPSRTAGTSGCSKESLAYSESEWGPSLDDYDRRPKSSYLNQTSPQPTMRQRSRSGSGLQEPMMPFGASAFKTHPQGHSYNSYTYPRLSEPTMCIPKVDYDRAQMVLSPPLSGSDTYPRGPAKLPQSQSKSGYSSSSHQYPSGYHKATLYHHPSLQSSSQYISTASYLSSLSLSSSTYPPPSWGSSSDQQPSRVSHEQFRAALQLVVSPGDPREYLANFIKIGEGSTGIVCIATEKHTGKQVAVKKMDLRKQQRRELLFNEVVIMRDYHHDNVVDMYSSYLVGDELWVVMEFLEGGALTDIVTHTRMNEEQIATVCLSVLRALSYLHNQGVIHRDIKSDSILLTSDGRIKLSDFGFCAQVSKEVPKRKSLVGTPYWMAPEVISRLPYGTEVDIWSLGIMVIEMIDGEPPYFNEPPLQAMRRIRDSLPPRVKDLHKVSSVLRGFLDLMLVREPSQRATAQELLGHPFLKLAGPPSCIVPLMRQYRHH

SMILES	kinase still bound, per cent of control (MYLK (human)) [%]	kinase still bound, per cent of control (TAOK2 (human)) [%]	kinase still bound, per cent of control (NUAK1 (human)) [%]	kinase still bound, per cent of control (CAMK2G (human)) [%]	kinase still bound, per cent of control (TNNI3K (human)) [%]	kinase still bound, per cent of control (TIE1 (human)) [%]	kinase still bound, per cent of control (PIK3CD (human)) [%]	kinase still bound, per cent of control (PAK7 (human)) [%]	kinase still bound, per cent of control (MYLK4 (human)) [%]	kinase still bound, per cent of control (RIPK1 (human)) [%]	kinase still bound, per cent of control (SLK (human)) [%]	kinase still bound, per cent of control (TNIK (human)) [%]	kinase still bound, per cent of control (STK36 (human)) [%]	kinase still bound, per cent of control (HCK (human)) [%]	kinase still bound, per cent of control (MKNK2 (human)) [%]	kinase still bound, per cent of control [1] [%]	kinase still bound, per cent of control (STK3 (human)) [%]	kinase still bound, per cent of control (STK35 (human)) [%]	kinase still bound, per cent of control (ERBB4 (human)) [%]	kinase still bound, per cent of control (AURKC (human)) [%]	further results
COc1cc2ncnc(-n3nc(-c4ccccn4)nc3N)c2cc1OC	0.8	42	100	56	80	93	5	63	25	86	28	40	7.4	12	8.4	40	54	24	59	6.2	kinase still bound, per cent of control (MLTK (human)): 4.5%; kinase still bound, per cent of control (MAP3K9 (human)): 70%; kinase still bound, per cent of control (HIPK1 (human)): 0.55%; kinase still bound, per cent of control [2]: 0.4%; kinase still bound, per cent of control (MAPKAPK5 (human)): 100%; kinase still bound, per cent of control (RAF1 (human)): 59%; kinase still bound, per cent of control (FGFR1 (human)): 65%; kinase still bound, per cent of control (MTOR (human)): 5%; kinase still bound, per cent of control (PRKX (human)): 79%; kinase still bound, per cent of control (ROS1 (human)): 25%; kinase still bound, per cent of control (TRPM6 (human)): 61%; kinase still bound, per cent of control (SGK3 (human)): 74%; kinase still bound, per cent of control (FRK (human)): 19%; kinase still bound, per cent of control (MAP3K11 (human)): 63%; kinase still bound, per cent of control (MARK3 (human)): 100%; kinase still bound, per cent of control (PHKG2 (human)): 36%; kinase still bound, per cent of control (TAOK1 (human)): 3.2%; kinase still bound, per cent of control (CDK17 (human)): 59%; kinase still bound, per cent of control (EPHB1 (human)): 32%; kinase still bound, per cent of control (MAPK11 (human)): 8.2%
COc1ccc(N(C(=O)Oc2c(C)cccc2C)c2ccnc(Nc3ccc(N4CCN(C)CC4)cc3)n2)c(OC)c1	100	2.4	30	100	0	5.8	92	82	100	63	0.1	37	0.95	0.15	90	1.6	23	24	0.75	9.9	kinase still bound, per cent of control (MLTK (human)): 24%; kinase still bound, per cent of control (MAP3K9 (human)): 0.6%; kinase still bound, per cent of control (HIPK1 (human)): 100%; kinase still bound, per cent of control [2]: 84%; kinase still bound, per cent of control (MAPKAPK5 (human)): 100%; kinase still bound, per cent of control (RAF1 (human)): 95%; kinase still bound, per cent of control (FGFR1 (human)): 0.25%; kinase still bound, per cent of control (MTOR (human)): 100%; kinase still bound, per cent of control (PRKX (human)): 41%; kinase still bound, per cent of control (ROS1 (human)): 0.8%; kinase still bound, per cent of control (TRPM6 (human)): 100%; kinase still bound, per cent of control (SGK3 (human)): 100%; kinase still bound, per cent of control (FRK (human)): 0%; kinase still bound, per cent of control (MAP3K11 (human)): 8.8%; kinase still bound, per cent of control (MARK3 (human)): 4.8%; kinase still bound, per cent of control (PHKG2 (human)): 100%; kinase still bound, per cent of control (TAOK1 (human)): 11%; kinase still bound, per cent of control (CDK17 (human)): 80%; kinase still bound, per cent of control (EPHB1 (human)): 0%; kinase still bound, per cent of control (MAPK11 (human)): 11%
